Reference: the NIST ThermoML archive (doi:10.1021/je049691v)

Assay: xn = mol fraction of the nth substance listed
Conditions: Liquid

CO [methanol] + O
Conditions | mass density [kg/m3]
283.15 K, x2 = 0.08 | 813.74
283.15 K, x2 = 0.1581 | 827.14
283.15 K, x2 = 0.2401 | 842.01
283.15 K, x2 = 0.3206 | 857.15
283.15 K, x2 = 0.3987 | 872.39
283.15 K, x2 = 0.4799 | 888.59
283.15 K, x2 = 0.56 | 905.16
283.15 K, x2 = 0.6407 | 922.05
283.15 K, x2 = 0.7201 | 938.63
283.15 K, x2 = 0.8 | 954.82
283.15 K, x2 = 0.8801 | 970.45
283.15 K, x2 = 0.9603 | 988.05
288.15 K, x2 = 0.08 | 809.22
288.15 K, x2 = 0.1581 | 822.75
288.15 K, x2 = 0.2401 | 837.75
288.15 K, x2 = 0.3206 | 853.02
288.15 K, x2 = 0.3987 | 868.39
288.15 K, x2 = 0.4799 | 884.77
288.15 K, x2 = 0.56 | 901.56
288.15 K, x2 = 0.6407 | 918.74
288.15 K, x2 = 0.7201 | 935.71
288.15 K, x2 = 0.8 | 952.47
288.15 K, x2 = 0.8801 | 968.91
288.15 K, x2 = 0.9603 | 987.31
293.15 K, x2 = 0.08 | 804.67
293.15 K, x2 = 0.1581 | 818.33
293.15 K, x2 = 0.2401 | 833.45
293.15 K, x2 = 0.3206 | 848.84
293.15 K, x2 = 0.3987 | 864.35
293.15 K, x2 = 0.4799 | 880.88
293.15 K, x2 = 0.56 | 897.88
293.15 K, x2 = 0.6407 | 915.33
293.15 K, x2 = 0.7201 | 932.67
293.15 K, x2 = 0.8 | 949.98
293.15 K, x2 = 0.8801 | 967.17
293.15 K, x2 = 0.9603 | 986.29
298.15 K, x2 = 0.08 | 800.1
298.15 K, x2 = 0.1581 | 813.88
298.15 K, x2 = 0.2401 | 829.11
298.15 K, x2 = 0.3206 | 844.62
298.15 K, x2 = 0.3987 | 860.25
298.15 K, x2 = 0.4799 | 876.94
298.15 K, x2 = 0.56 | 894.14
298.15 K, x2 = 0.6407 | 911.85
298.15 K, x2 = 0.7201 | 929.54
298.15 K, x2 = 0.8 | 947.37
298.15 K, x2 = 0.8801 | 965.23
298.15 K, x2 = 0.9603 | 985.01
303.15 K, x2 = 0.08 | 795.52
303.15 K, x2 = 0.1581 | 809.4
303.15 K, x2 = 0.2401 | 824.74
303.15 K, x2 = 0.3206 | 840.35
303.15 K, x2 = 0.3987 | 856.1
303.15 K, x2 = 0.4799 | 872.93
303.15 K, x2 = 0.56 | 890.32
303.15 K, x2 = 0.6407 | 908.28
303.15 K, x2 = 0.7201 | 926.31
303.15 K, x2 = 0.8 | 944.61
303.15 K, x2 = 0.8801 | 963.12
303.15 K, x2 = 0.9603 | 983.49
308.15 K, x2 = 0.08 | 790.9
308.15 K, x2 = 0.1581 | 804.88
308.15 K, x2 = 0.2401 | 820.31
308.15 K, x2 = 0.3206 | 836.03
308.15 K, x2 = 0.3987 | 851.89
308.15 K, x2 = 0.4799 | 868.86
308.15 K, x2 = 0.56 | 886.42
308.15 K, x2 = 0.6407 | 904.62
308.15 K, x2 = 0.7201 | 922.97
308.15 K, x2 = 0.8 | 941.73
308.15 K, x2 = 0.8801 | 960.83
308.15 K, x2 = 0.9603 | 981.76
313.15 K, x2 = 0.08 | 786.24
313.15 K, x2 = 0.1581 | 800.3
313.15 K, x2 = 0.2401 | 815.84
313.15 K, x2 = 0.3206 | 831.64
313.15 K, x2 = 0.3987 | 847.61
313.15 K, x2 = 0.4799 | 864.71
313.15 K, x2 = 0.56 | 882.44
313.15 K, x2 = 0.6407 | 900.87
313.15 K, x2 = 0.7201 | 919.53
313.15 K, x2 = 0.8 | 938.72
313.15 K, x2 = 0.8801 | 958.38
313.15 K, x2 = 0.9603 | 979.82
318.15 K, x2 = 0.08 | 781.54
318.15 K, x2 = 0.1581 | 795.69
318.15 K, x2 = 0.2401 | 811.3
318.15 K, x2 = 0.3206 | 827.2
318.15 K, x2 = 0.3987 | 843.26
318.15 K, x2 = 0.4799 | 860.49
318.15 K, x2 = 0.56 | 878.38
318.15 K, x2 = 0.6407 | 897.03
318.15 K, x2 = 0.7201 | 915.98
318.15 K, x2 = 0.8 | 935.58
318.15 K, x2 = 0.8801 | 955.76
318.15 K, x2 = 0.9603 | 977.69
323.15 K, x2 = 0.08 | 776.8
323.15 K, x2 = 0.1581 | 791.04
323.15 K, x2 = 0.2401 | 806.71
323.15 K, x2 = 0.3206 | 822.69
323.15 K, x2 = 0.3987 | 838.85
323.15 K, x2 = 0.4799 | 856.2
323.15 K, x2 = 0.56 | 874.24
323.15 K, x2 = 0.6407 | 893.1
323.15 K, x2 = 0.7201 | 912.32
323.15 K, x2 = 0.8 | 932.31
323.15 K, x2 = 0.8801 | 952.99
323.15 K, x2 = 0.9603 | 975.39
328.15 K, x2 = 0.08 | 772.01
328.15 K, x2 = 0.1581 | 786.32
328.15 K, x2 = 0.2401 | 802.07
328.15 K, x2 = 0.3206 | 818.11
328.15 K, x2 = 0.3987 | 834.36
328.15 K, x2 = 0.4799 | 851.82
328.15 K, x2 = 0.56 | 870.01
328.15 K, x2 = 0.6407 | 889.07
328.15 K, x2 = 0.7201 | 908.56
328.15 K, x2 = 0.8 | 928.92
328.15 K, x2 = 0.8801 | 950.06
328.15 K, x2 = 0.9603 | 972.92
333.15 K, x2 = 0.08 | 767.16
333.15 K, x2 = 0.1581 | 781.54
333.15 K, x2 = 0.2401 | 797.35
333.15 K, x2 = 0.3206 | 813.44
333.15 K, x2 = 0.3987 | 829.79
333.15 K, x2 = 0.4799 | 847.36
333.15 K, x2 = 0.56 | 865.69
333.15 K, x2 = 0.6407 | 884.94
333.15 K, x2 = 0.7201 | 904.69
333.15 K, x2 = 0.8 | 925.41
333.15 K, x2 = 0.8801 | 947
333.15 K, x2 = 0.9603 | 970.28
338.15 K, x2 = 0.08 | 762.24
338.15 K, x2 = 0.1581 | 776.67
338.15 K, x2 = 0.2401 | 792.56
338.15 K, x2 = 0.3206 | 808.71
338.15 K, x2 = 0.3987 | 825.13
338.15 K, x2 = 0.4799 | 842.81
338.15 K, x2 = 0.56 | 861.28
338.15 K, x2 = 0.6407 | 880.72
338.15 K, x2 = 0.7201 | 900.71
338.15 K, x2 = 0.8 | 921.77
338.15 K, x2 = 0.8801 | 943.79
338.15 K, x2 = 0.9603 | 967.5
343.15 K, x2 = 0.08 | 757.24
343.15 K, x2 = 0.1581 | 771.74
343.15 K, x2 = 0.2401 | 787.68
343.15 K, x2 = 0.3206 | 803.91
343.15 K, x2 = 0.3987 | 820.39
343.15 K, x2 = 0.4799 | 838.17
343.15 K, x2 = 0.56 | 856.77
343.15 K, x2 = 0.6407 | 876.4
343.15 K, x2 = 0.7201 | 896.64
343.15 K, x2 = 0.8 | 918.02
343.15 K, x2 = 0.8801 | 940.45
343.15 K, x2 = 0.9603 | 964.57
348.15 K, x2 = 0.08 | 752.17
348.15 K, x2 = 0.1581 | 766.72
348.15 K, x2 = 0.2401 | 782.71
348.15 K, x2 = 0.3206 | 799
348.15 K, x2 = 0.3987 | 815.56
348.15 K, x2 = 0.4799 | 833.44
348.15 K, x2 = 0.56 | 852.18
348.15 K, x2 = 0.6407 | 871.97
348.15 K, x2 = 0.7201 | 892.45
348.15 K, x2 = 0.8 | 914.14
348.15 K, x2 = 0.8801 | 936.97
348.15 K, x2 = 0.9603 | 961.5
353.15 K, x2 = 0.08 | 747.01
353.15 K, x2 = 0.1581 | 761.6
353.15 K, x2 = 0.2401 | 777.65
353.15 K, x2 = 0.3206 | 794
353.15 K, x2 = 0.3987 | 810.62
353.15 K, x2 = 0.4799 | 828.62
353.15 K, x2 = 0.56 | 847.48
353.15 K, x2 = 0.6407 | 867.48
353.15 K, x2 = 0.7201 | 888.15
353.15 K, x2 = 0.8 | 910.15
353.15 K, x2 = 0.8801 | 933.37
353.15 K, x2 = 0.9603 | 958.3
